{
  "source": "PubChem BioAssay (NCI)",
  "note": "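Assay format: 96-well plates, 48-hour exposure. Abbreviation: GI50, concentration required for 50% inhibition of growth. TGI: concentration producing complete growth inhibition.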",
  "data": [
    {"test_system": "T-47D breast", "assay": "NCI-60 cell line screen, 48 h", "units": {"GI50": "µM", "TGI": "µM"}, "values": [
      {"smiles": "CC(C)(C)c1ccc(C(=O)Nc2sc3c(c2C(N)=O)CCC(=O)C3)cc1", "GI50": 0.261, "TGI": 1.65},
      {"smiles": "O=C(Nc1cccc(Nc2ncc(Br)c(NCCc3cnc[nH]3)n2)c1)N1CCCC1", "GI50": 4.43, "TGI": 25.5},
      {"smiles": "C[C@@H]1O[C@@H](O[C@H]2CC[C@@]3(C)[C@H](CCC4[C@@H]3C(O)C[C@]3(C)[C@@H](c5ccc(=O)oc5)CC[C@]43O)C2)[C@H](O)[C@H](O)[C@H]1O", "note": "(stereo partly specified)", "GI50": "< 0.00325", "TGI": 0.0241},
      {"smiles": "CN1CCC(n2cnc(-c3ccc(F)cc3)c2-c2ccnc(N)n2)CC1", "GI50": 16, "TGI": "> 25"},
      {"smiles": "COc1cc(/C=C/[N+](=O)[O-])cc(Br)c1OC", "GI50": 2.57, "TGI": 8.48},
      {"smiles": "CN(CC(N)=O)C(=O)N(CCCl)N=O", "TGI": "> 100"},
      {"smiles": "CC(C)=CCC/C(C)=C/CC/C(C)=C/CC/C=C(\\C)CC/C=C(\\C)CCC(=O)Nc1ccn(C2OC(CO)C(O)C2(F)F)c(=O)n1", "note": "(stereo unspecified)", "GI50": 0.089, "TGI": 11.8},
      {"smiles": "CC(C)(C)CN1CCn2c(nc3c(N)nccc32)S1", "GI50": 13, "TGI": "> 100"},
      {"smiles": "Cc1c(C2=C(c3cn(C)c4ccccc34)C(=O)NC2=O)c2ccccc2n1C", "GI50": 4.07, "TGI": "> 25"},
      {"smiles": "CC1(C)CCC[C@]2(C)[C@@H](C=O)C(C=O)=CC[C@@H]12", "TGI": 60.3}
    ]},
    {"test_system": "TK-10 renal", "assay": "NCI-60 cell line screen, 48 h", "units": {"GI50": "µM", "TGI": "µM"}, "values": [
      {"smiles": "CC(=O)c1c(C(F)(F)F)n([O-])c2ccc(C)cc2[n+]1=O", "GI50": 5.07, "TGI": "> 50.5"},
      {"smiles": "N/N=C1\\CC(=O)NC(=O)N1", "TGI": "> 100"},
      {"smiles": "COc1ccc(/C=N/NC(=O)Cn2c(-c3ccc(S(C)(=O)=O)cc3)nc3cc(Cl)ccc32)cc1", "GI50": 4.7, "TGI": "> 50"},
      {"smiles": "COc1cc2c(c(OC)c1OC)-c1ccc(SC)c(=O)cc1[C@@H](NC1OC(CO)C(O)C(O)C1O)CC2", "note": "(stereo partly specified)", "GI50": 0.0478, "TGI": 31.2},
      {"smiles": "CCOc1nc(N)nc(C)c1N=Nc1ccc(Cl)cc1", "TGI": "> 100"},
      {"smiles": "CCN(Cc1ccc(Cl)s1)c1ccc(CO)c(Cl)c1", "GI50": 0.0452, "TGI": 0.221},
      {"smiles": "Nc1ccccc1SCc1csc(-c2ccc(Cl)cc2)n1", "TGI": "> 100"},
      {"smiles": "CSC(=S)N/N=C(\\C)c1cccc(C)n1", "TGI": 33.9},
      {"smiles": "N#Cc1c(N)[nH]c2ccc(Sc3ccccc3)cc12", "TGI": 20.8},
      {"smiles": "CCN1C(=O)N(CC)C2C1NN=c1s/c(=C\\c3ccccc3Br)c(=O)n12", "note": "(stereo unspecified)", "GI50": 12.5, "TGI": "> 100"},
      {"smiles": "O=C(O)COc1c(Cl)cc(Cl)c2cccnc12", "TGI": "> 100"},
      {"smiles": "CC(C)(C)c1ccc(C(=O)Nc2sc3c(c2C(N)=O)CCC(=O)C3)cc1", "GI50": 1.42, "TGI": 4.77},
      {"smiles": "O=C(Nc1cccc(Nc2ncc(Br)c(NCCc3cnc[nH]3)n2)c1)N1CCCC1", "GI50": 3.87, "TGI": 20},
      {"smiles": "C[C@@H]1O[C@@H](O[C@H]2CC[C@@]3(C)[C@H](CCC4[C@@H]3C(O)C[C@]3(C)[C@@H](c5ccc(=O)oc5)CC[C@]43O)C2)[C@H](O)[C@H](O)[C@H]1O", "note": "(stereo partly specified)", "GI50": "< 0.00325", "TGI": 0.00555},
      {"smiles": "CN1CCC(n2cnc(-c3ccc(F)cc3)c2-c2ccnc(N)n2)CC1", "GI50": 7.89, "TGI": "> 25"},
      {"smiles": "COc1cc(/C=C/[N+](=O)[O-])cc(Br)c1OC", "GI50": 3.52, "TGI": 11.5},
      {"smiles": "CN(CC(N)=O)C(=O)N(CCCl)N=O", "TGI": "> 100"},
      {"smiles": "CC(C)=CCC/C(C)=C/CC/C(C)=C/CC/C=C(\\C)CC/C=C(\\C)CCC(=O)Nc1ccn(C2OC(CO)C(O)C2(F)F)c(=O)n1", "note": "(stereo unspecified)", "GI50": 3.05, "TGI": 18.8},
      {"smiles": "CC(C)(C)CN1CCn2c(nc3c(N)nccc32)S1", "GI50": 16.6, "TGI": "> 100"},
      {"smiles": "Cc1c(C2=C(c3cn(C)c4ccccc34)C(=O)NC2=O)c2ccccc2n1C", "GI50": 6, "TGI": "> 25"},
      {"smiles": "CC1(C)CCC[C@]2(C)[C@@H](C=O)C(C=O)=CC[C@@H]12", "TGI": 74}
    ]},
    {"test_system": "UACC-257 melanoma", "assay": "NCI-60 cell line screen, 48 h", "units": {"GI50": "µM", "TGI": "µM"}, "values": [
      {"smiles": "CC(=O)c1c(C(F)(F)F)n([O-])c2ccc(C)cc2[n+]1=O", "GI50": 4.42, "TGI": "> 46.8"},
      {"smiles": "N/N=C1\\CC(=O)NC(=O)N1", "TGI": "> 100"},
      {"smiles": "COc1ccc(/C=N/NC(=O)Cn2c(-c3ccc(S(C)(=O)=O)cc3)nc3cc(Cl)ccc32)cc1", "GI50": "> 50", "TGI": "> 50"},
      {"smiles": "COc1cc2c(c(OC)c1OC)-c1ccc(SC)c(=O)cc1[C@@H](NC1OC(CO)C(O)C(O)C1O)CC2", "note": "(stereo partly specified)", "GI50": 0.447, "TGI": "> 100"},
      {"smiles": "CCOc1nc(N)nc(C)c1N=Nc1ccc(Cl)cc1", "TGI": "> 100"},
      {"smiles": "CCN(Cc1ccc(Cl)s1)c1ccc(CO)c(Cl)c1", "GI50": 0.0898, "TGI": 0.298},
      {"smiles": "Nc1ccccc1SCc1csc(-c2ccc(Cl)cc2)n1", "TGI": "> 77.7"},
      {"smiles": "CSC(=S)N/N=C(\\C)c1cccc(C)n1", "TGI": 21.9},
      {"smiles": "N#Cc1c(N)[nH]c2ccc(Sc3ccccc3)cc12", "TGI": 29.5},
      {"smiles": "CCN1C(=O)N(CC)C2C1NN=c1s/c(=C\\c3ccccc3Br)c(=O)n12", "note": "(stereo unspecified)", "GI50": 9.29, "TGI": 33.3},
      {"smiles": "O=C(O)COc1c(Cl)cc(Cl)c2cccnc12", "TGI": "> 100"},
      {"smiles": "CC(C)(C)c1ccc(C(=O)Nc2sc3c(c2C(N)=O)CCC(=O)C3)cc1", "GI50": 1.72, "TGI": 4.19},
      {"smiles": "O=C(Nc1cccc(Nc2ncc(Br)c(NCCc3cnc[nH]3)n2)c1)N1CCCC1", "GI50": 12, "TGI": 37.5},
      {"smiles": "C[C@@H]1O[C@@H](O[C@H]2CC[C@@]3(C)[C@H](CCC4[C@@H]3C(O)C[C@]3(C)[C@@H](c5ccc(=O)oc5)CC[C@]43O)C2)[C@H](O)[C@H](O)[C@H]1O", "note": "(stereo partly specified)", "GI50": 0.00589, "TGI": 0.0121},
      {"smiles": "CN1CCC(n2cnc(-c3ccc(F)cc3)c2-c2ccnc(N)n2)CC1", "GI50": 11.7, "TGI": "> 25"},
      {"smiles": "COc1cc(/C=C/[N+](=O)[O-])cc(Br)c1OC", "GI50": 2.88, "TGI": 10.4},
      {"smiles": "CN(CC(N)=O)C(=O)N(CCCl)N=O", "TGI": "> 100"},
      {"smiles": "CC(C)=CCC/C(C)=C/CC/C(C)=C/CC/C=C(\\C)CC/C=C(\\C)CCC(=O)Nc1ccn(C2OC(CO)C(O)C2(F)F)c(=O)n1", "note": "(stereo unspecified)", "GI50": 0.252, "TGI": 8.22},
      {"smiles": "CC(C)(C)CN1CCn2c(nc3c(N)nccc32)S1", "GI50": 19.7, "TGI": 79.1},
      {"smiles": "Cc1c(C2=C(c3cn(C)c4ccccc34)C(=O)NC2=O)c2ccccc2n1C", "GI50": "> 25", "TGI": "> 25"},
      {"smiles": "CC1(C)CCC[C@]2(C)[C@@H](C=O)C(C=O)=CC[C@@H]12", "TGI": 31.5}
    ]}
  ]
}
